In patent US4374773A, “Triazolo-benzodiazepine derivatives” (Hoffmann-La Roche Inc., priority 1980, dated 1983):

How the values were obtained:
[1] = tested on: aldosterone; assay: aldosterone-antagonistic properties in adrenalectomised rats (urine volume, sodium and potassium excretion); format: in vivo, Female Holtzmann rats; details: aldosterone s.c. 30 min later, urine collected 3 hours, control = aldosterone only
Description: If compounds of formula I are administered to the animals before the treatment with aldosterone, then there is observed, in comparison with animals which are treated only with aldosterone (control animals), a pronounced increase of the sodium excretion (i.e. the sodium retention caused by aldosterone is antagonised), whereas the potassium excretion and the urine volume are influenced to a lesser extent.
The standard experiment is carried out as follows:
Female Holtzmann rats (150-180 g) are bilaterally adrenalectomised 70 to 74 hours before the beginning of the experiment. After the operation, the animals receive a customary rat dry feed and 0.9 percent sodium chloride solution for drinking. 16 to 17 hours before the beginning of the experiment the feed is removed from the animals, but they can subsequently drink, as before, 0.9 percent sodium chloride solution ad libitum. At the beginning of the experiment the substance to be tested as an aldosterone-antagonist is administered to the animals by means of a stomach probe. 30 minutes later the animals receive a subcutaneous injection of 4 mmg/kg of aldosterone. After a further 90 minutes, the urinary bladders of the animals are emptied by careful suprapubic pressure, whereupon the animals are placed individually in metabolic cages without food and without drink. The urine of the animals is then collected for 3 hours, whereupon their urinary bladders are once more emptied. The spontaneously excreted urine and the remaining urine obtained at the conclusion of the experiment by pressing-out the urinary bladders are collected in graduated centrifuge glasses. Sodium and potassium concentrations in the urine are determined with a flame photometer.
(§1) The following Table contains results which have been obtained in the previously described experiment with representative compounds of formula I. In this Table there are given for each compound in question the dosage administered (in mg/kg p.o.) as well as the percentage variation in the urine volume, the sodium excretion and the potassium excretion in comparison with the control animals (i.e. in comparison with the animals treated only with aldosterone). Moreover, the Table contains data relating to the acute toxicity of the compounds investigated (LD 50 in mg/kg in the case of single oral administration to mice).

[2] = acute toxicity, single oral administration to mice; details: mouse, in vivo
Text: as §1

[3] = tested on: aldosterone; assay: aldosterone-antagonistic properties in adrenalectomised rats (urine volume, sodium and potassium excretion); format: in vivo, Female Holtzmann rats; details: compared with untreated animals

| Structure (SMILES) | potassium excretion [K+] in %, based on control animals ([1]; 1 mg/kg p.o.) | sodium excretion [Na+] in %, based on control animals ([1]; 1 mg/kg p.o.) | urine volume in %, based on control animals ([1]; 1 mg/kg p.o.) | LD50 [2] | potassium excretion [K+] in %, based on control animals ([1]; 10 mg/kg p.o.) | sodium excretion [Na+] in %, based on control animals ([1]; 10 mg/kg p.o.) | urine volume in %, based on control animals ([1]; 10 mg/kg p.o.) | excreted urine volume, effect of aldosterone [3] | potassium excretion, effect of aldosterone [3] | sodium excretion, effect of aldosterone [3] |
| --- | --- | --- | --- | --- | --- | --- | --- | --- | --- | --- |
| Cc1nnc2n1-c1ccc(NC(=O)NCCO)cc1C(c1ccccc1F)=NC2(C)C [Example 4, 1-[6-(o-fluorophenyl)-1,4,4-trimethyl-4H-s-triazolo[4,3-a][1,4]benzodiazepin-8-yl]-3-(2-hydroxyethyl)urea] | 90% | 256% | 112% | > 5000 mg/kg | – | – | – | – | – | – |
| CN(C)C(=O)Nc1ccc2c(c1)C(c1ccccc1F)=NC(C)(C)c1nncn1-2 [Example 5, 3-[6-(o-fluorophenyl)-4,4-dimethyl-4H-s-triazolo[4,3-a][1,4]benzodiazepin-8-yl]-1,1-dimethylurea] | 65% | 238% | 106% | > 5000 mg/kg | – | – | – | – | – | – |
| CN(C)C(=O)Nc1ccc2c(c1)C(c1ccccc1Cl)=NCc1nncn1-2 [Example 8, 3-[6-(o-chlorophenyl)-4H-s-triazolo[4,3-a][1,4]benzodiazepin-8-yl]-1,1-dimethylurea] | – | – | – | > 5000 mg/kg | 100% | 252% | 131% | – | – | – |
| Cc1nnc2n1-c1ccc(NC(=O)N(C)C)cc1C(c1ccccc1Cl)=NC2 [Example 10, 3-[6-(o-chlorophenyl)-1-methyl-4H-s-triazolo[4,3-a][1,4]-benzodiazepin-8-yl]-1,1-dimethylurea] | – | – | – | > 5000 mg/kg | 112% | 252% | 103% | – | – | – |
| Cc1nnc2n1-c1ccc(NC(=O)NCCO)cc1C(c1ccccc1Cl)=NC2(C)C [Example 12, 1-[6-(o-chlorophenyl)-1,4,4-trimethyl-4H-s-triazolo[4,3-a][1,4]benzodiazepin-8-yl]-3-(2-hydroxyethyl)urea] | 75% | 215% | 75% | > 5000 mg/kg | – | – | – | – | – | – |
| CC1(C)N=C(c2ccccc2Cl)c2cc(NC(=O)N3CCCC3)ccc2-n2cnnc21 [Example 13, N-[6-(o-chlorophenyl)-4,4-dimethyl-4H-s-triazolo[4,3-a][1,4]benzodiazepin-8-yl]-1-pyrrolidinecarboxamide] | 72% | 155% | 97% | > 5000 mg/kg | – | – | – | – | – | – |
| C[C@]12CCC(=O)C=C1CC[C@@H]1[C@@H]2[C@@H](O)C[C@]2(C=O)[C@@H](C(=O)CO)CC[C@@H]12 [aldosterone] | – | – | – | – | – | – | – | reduction of the excreted urine volume | increased potassium excretion | pronounced reduction of the sodium excretion |
